The source of these data is patent US20240360114A1 (SIRONAX LTD., priority 2021, published 2024).

pEC50: −log10 of the molar value.

The test system of one assay is HT-1080 cells. As to the kind of experiment: HT-1080 cell viability assay (ferroptosis induced by RSL3, Cell Titer-Glo). The assay is classed as cell-based. The settings on record: Homo sapiens, HT-1080, 20 h, ferroptosis inducer RSL3, 20 hours, ferroptosis inhibitory activity, Table 2. In outline:
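EC50 fitted by sigmoidal dose-response regression on luminescent viability data normalized to untreated cells. Compounds ran as a 10-point, 3-fold series from 1.1 μM alongside RSL3 for 20 hours, after overnight seeding.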
In general terms: Cellular ATP, detected with luciferase, serves as a proxy for viable cell number.
As to `O=C1NC[C@H](C(=O)NCC2CCC(Nc3ccc(N4CCC(C(F)(F)F)CC4)cc3)CC2)N1` (stereo partly drawn) [Compound 18, (R)-2-oxo-N-((4-((4-(4-(trifluoromethyl)piperidin-1-yl)phenyl)amino)cyclohexyl)methyl)imidaz olidine-4-carboxamide], the pEC50 (in general, the negative decadic logarithm of the EC50, by convention in mol/L) is 7.00 to 10.00.

`CCc1ccc(NC2CCC(N)CC2)cc1` (stereo not shown) [Compound 125, N1-(4-ethylphenyl)cyclohexane-1,4-diamine] showed a pEC50 of 6.00 to 7.00.

Consider `CC(C)(C)c1ccc(NC2CCC(CNC(=O)[C@H]3CNC(=O)N3)CC2)cc1` (single isomer, unassigned) [Compound 143A], for which the pEC50 was 6.00 to 7.00.

Turning to `Cc1cc(NC2CCC(N)CC2)ccc1C(C)(C)C` (stereo not shown) [Compound 217, N1-(4-(tert-butyl)-3-methylphenyl)cyclohexane-1,4-diamine], the negative logarithm of the EC50 (pEC50) is 7.00 to 10.00.

Consider `Cc1cc(N2CCC(C(F)(F)F)C2)ccc1NC[C@H]1CC[C@H](N)CC1` (stereo partly shown) [Compound 419, N-(((1r,4r)-4-aminocyclohexyl)methyl)-2-methyl-4-(3-(trifluoromethyl)pyrrolidin-1-yl)aniline], for which the pEC50 was 7.00 to 10.00.

`CN(C)C(=O)C1CCC(Nc2ccc(C3CCC(C)(C)CC3)cc2)CC1` (stereo not shown) [Compound 89, 4-((4-(4,4-dimethylcyclohexyl)phenyl)amino)-N,N-dimethylcyclohexane-1-carboxamide] had a pEC50 of 7.00 to 10.00.

The molecule `CN(C)CCCN1CCC(Nc2ccc(C3CCC(C)(C)CC3)cc2)CC1=O` (stereo not shown) [Compound 247, 1-(3-(dimethylamino)propyl)-4-((4-(4,4-dimethylcyclohexyl)phenyl)amino)piperidin-2-one] showed a pEC50 of 7.00 to 10.00.

`Cc1cc(N2CCCCC2)ccc1NC[C@H]1CC[C@H](N)CC1` [Compound 379, N-(((1r,4r)-4-aminocyclohexyl)methyl)-2-methyl-4-(piperidin-1-yl)aniline]: the pEC50 was 7.00 to 10.00.

Turning to `CN(C)C1CCC(Nc2ccc(C3CCC(C)(C)CC3)cc2)CC1` (single isomer, unassigned) [Compound 91A, N1-(4-(4,4-dimethylcyclohexyl)phenyl)-N4,N4-dimethylcyclohexane-1,4-diamine], the pEC50 is 7.00 to 10.00.

The molecule `NC1CCC(Nc2ccc(Cl)cc2)CC1` (stereo not shown) [Compound 161, N1-(4-chlorophenyl)cyclohexane-1,4-diamine] gave a pEC50 of 5.00 to 6.00.

`Cc1cc(N2CC(C)OC(C)C2)ccc1NC1CCCCC1N` (stereo not shown) [Compound 442, N1-(4-(2,6-dimethylmorpholino)-2-methylphenyl)cyclohexane-1,2-diamine] gave a pEC50 of 6.00 to 7.00.

The molecule `NC1CCC(CNc2ccc(N3CCS(=O)(=O)CC3)cc2)CC1` (stereo not shown) [Compound 449, 4-(4-(((4-aminocyclohexyl)methyl)amino)phenyl) thiomorpholine 1,1-dioxide] showed a pEC50 of 5.00 to 6.00.

In turn, `CC(C)(C)c1ccc(N[C@@H]2C[C@H](N)C[C@H](N)C2)cc1` [Compound 345, (1s,3R,5S)-N1-(4-(tert-butyl)phenyl)cyclohexane-1,3,5-triamine] gave a pEC50 of 6.00 to 7.00.

Regarding `CC(C)(C)c1ccc(NC2CCCNC2)cc1` (stereo not shown) [Compound 150, N-(4-(tert-butyl)phenyl)piperidin-3-amine], the pEC50 is 6.00 to 7.00.

Regarding `CC1(C)CCC(c2ccc(NC3CCC(CNC(=O)C4CNC(=O)C4)CC3)cc2)CC1` (single isomer, unassigned) [Compound 106A], the pEC50 was 7.00 to 10.00.

As to `CC1(C)CCC(c2ccc(NC3CCC(CNC(=O)[C@@H]4CNC(=O)N4)CC3)cc2)CC1` (single isomer, unassigned) [Compound 107A], the pEC50 is 7.00 to 10.00.

In turn, `CC(C)(C)c1ccc(NC2CCC(O)C(O)C2)cc1` (stereo not shown) [Compound 255, 4-((4-(tert-butyl)phenyl)amino)cyclohexane-1,2-diol] showed a pEC50 of 5.00 to 6.00.

Molecule `O=C1CC(C(=O)NC2CC3(C2)CC(Nc2ccc(N4CCC(C(F)(F)F)CC4)cc2)C3)CN1` (stereo not shown) [Compound 375] showed a pEC50 of 7.00 to 10.00.

`CC1CN(c2ccc(NC3CCC(N)CC3)cc2F)CC(C)O1` (stereo not shown) [Compound 456, N1-(4-(2,6-dimethylmorpholino)-3-fluorophenyl)cyclohexane-1,4-diamine] showed a pEC50 of 6.00 to 7.00.

`CC1CN(c2ccc(NC[C@H]3CC[C@H](N)CC3)cc2)CC(C)N1C` (stereo partly shown) [Compound 525, N-(((1r,4r)-4-aminocyclohexyl)methyl)-4-(3,4,5-trimethylpiperazin-1-yl)aniline] had a pEC50 of 6.00 to 7.00.

In the case of `NC1CCC(Nc2cnc(N3CC4(CCC4)C3)nc2)CC1` (stereo not shown) [Compound 47, N1-(2-(2-azaspiro[3.3]heptan-2-yl)pyrimidin-5-yl)cyclohexane-1,4-diamine], the pEC50 was 6.00 to 7.00.

As to `CC(C)(C)c1ccccc1NC1CCC(N)CC1` (stereo not shown) [Compound 126, N1-(2-(tert-butyl)phenyl)cyclohexane-1,4-diamine], the pEC50 was 5.00 to 6.00.

Still in this assay, the particulars now being: Homo sapiens, HT-1080, 20 h, ferroptosis inducer RSL3, 20 hours, ferroptosis inhibitory activity, Table 3.
`NC1CC(Nc2ccc3nc(N4CCC(C(F)(F)F)CC4)ccc3c2)C1` (stereo not shown) [Compound 592, N1-(2-(4-(trifluoromethyl)piperidin-1-yl)quinolin-6-yl)cyclobutane-1,3-diamine] had a pEC50 of 7.00 to 10.00.

Consider `CC1CN(c2ccc3cc(N[C@H]4CC[C@@H](C(N)=O)CC4)ccc3c2)CC(C)O1` (stereo partly shown) [Compound 632, (1s,4s)-4-((6-(2,6-dimethylmorpholino)naphthalen-2-yl)amino)cyclohexane-1-carboxamide], for which the pEC50 was 7.00 to 10.00.

`Cc1nc(NC(C)(C)C)ccc1NC1CC2(CC(N)C2)C1` (stereo not shown) [Compound 596, N^5-(6-aminospiro [3.3]heptan-2-yl)-N^2-(tert-butyl)-6-methylpyridine-2,5-diamine]: the pEC50 was 7.00 to 10.00.

With `Cc1nc(N2CC[Si](C)(C)CC2)ccc1NC1CC2(C1)CC(C(N)=O)C2` (stereo not shown) [Compound 615, 6-((6-(4,4-dimethyl-1,4-azasilinan-1-yl)-2-methylpyridin-3-yl)amino)spiro[3.3]heptane-2-carboxamide], the pEC50 was 7.00 to 10.00.

Turning to `Cc1cc(N2CC[Si](C)(C)CC2)ccc1NC1CC2(CC(N)C2)C1` (stereo not shown) [Compound 634, N2-(4-(4.4-dimethyl-1,4-azasilinan-1-yl)-2-methylphenyl)spiro[3.3]heptane-2,6-diamine], the pEC50 is 7.00 to 10.00.

The molecule `Cc1nc(N(C)CCNCC(F)(F)F)ccc1NC1CC2(CC(N)C2)C1` (stereo not shown) [Compound 616, N^5-(6-aminospiro [3.3]heptan-2-yl)-N^2,6-dimethyl-N2-(2-((2,2,2-trifluoroethyl)amino)ethyl) pyridine-2,5-diamine] showed a pEC50 of 7.00 to 10.00.

Turning to `NC1CC(Nc2ccc3cc(N4CCN(CC(F)(F)F)CC4)ccc3c2)C1` (stereo not shown) [Compound 593, N^1-(6-(4-(2,2,2-trifluoroethyl)piperazin-1-yl)naphthalen-2-yl)cyclobutane-1,3-diamine], the pEC50 was 7.00 to 10.00.

For the molecule `Cc1nc(N2CCC(C3CC(C)OC(C)C3)CC2)ccc1NC1CC2(CC(N)C2)C1` (stereo not shown) [Compound 594, N^2-(6-(4-(2,6-dimethyltetrahydro-2H-pyran-4-yl)piperidin-1-yl)-2-methylpyridin-3-yl)spiro[3.3]heptane-2,6-diamine], the pEC50 was 7.00 to 10.00.

For the molecule `CC1CN(c2ccc3cc(NC4CC(N)C4)ccc3c2)CCO1` (stereo not shown) [Compound 629, N^1-(6-(2-methylmorpholino)naphthalen-2-yl)cyclobutane-1,3-diamine], the pEC50 is 7.00 to 10.00.
